According to patent publication US8937080B2, “Pyrimidine substituted macrocyclic HCV inhibitors” (Medivir AB, priority 2007, dated 2015):
Like-named read-outs stand apart in the source and are kept apart here.

Assays:
[1] = rcm bond, 14-membered ring, Hoveyda-Grubbs II, DCE, 16.0 h
[2] = from C=CCCCCN(C)C(=O)C1CC(Oc2ccnc(-c3ccccc3)n2)CC1C(=O)NC1(C(=O)NS(=O)(=O)C2CC2)CC1C=C; rcm bond; 14-membered ring; Hoveyda-Grubbs II; 150.0 °C; 0.17 h
[3] = system: HCV replicons (wild type NS3-NS5B regions of HCV type 1b) in Huh-7 luc/neo cells; assay: Replicon assay (Huh-Luc cells, luciferase readout); assay type: cell-based; details: Hepatitis C virus, Huh-7, 72 h, incubation of three days, luciferase activity
Text: The compounds of formula (I) were examined for activity in the inhibition of HCV RNA replication in a cellular assay. […] The cellular assay was based on a bicistronic expression construct, as described by Lohmann et al. (1999) Science vol. 285 pp. 110-113 with modifications described by Krieger et al. (2001) Journal of Virology 75: 4614-4624, in a multi-target screening strategy. In essence, the method was as follows.
The assay utilized the stably transfected cell line Huh-7 luc/neo (hereafter referred to as Huh-Luc). This cell line harbors an RNA encoding a bicistronic expression construct comprising the wild type NS3-NS5B regions of HCV type 1b translated from an Internal Ribosome Entry Site (IRES) from encephalomyocarditis virus (EMCV), preceded by a reporter portion (FfL-luciferase), and a selectable marker portion (neo^R, neomycine phosphotransferase). The construct is bordered by 5′ and 3′ NTRs (non-translated regions) from HCV type 1b. Continued culture of the replicon cells in the presence of G418 (neo^R) is dependent on the replication of the HCV RNA. The stably transfected replicon cells that express HCV RNA, which replicates autonomously and to high levels, encoding inter alia luciferase, are used for screening the antiviral compounds.
The replicon cells were plated in 384 well plates in the presence of the test and control compounds which were added in various concentrations. Following an incubation of three days, HCV replication was measured by assaying luciferase activity (using standard luciferase assay substrates and reagents and a Perkin Elmer ViewLux™ ultraHTS microplate imager). Replicon cells in the control cultures have high luciferase expression in the absence of any inhibitor. The inhibitory activity of the compound on luciferase activity was monitored on the Huh-Luc cells, enabling a dose-response curve for each test compound. EC50 values were then calculated, which value represents the amount of the compound required to decrease by 50% the level of detected luciferase activity, or more specifically, the ability of the genetically linked HCV replicon RNA to replicate.

[4] = biological target: HCV NS3/4A protease complexes (full-length hepatitis C NS3 protease enzyme with NS4A cofactor) (Hepatitis C virus genotype 1a, UniProt P27958); assay: Inhibition assay (enzymatic assay, depsipeptide substrate hydrolysis); assay type: biochemical; details: enzyme 1 nM, 25 μM NS4A cofactor, 0.5 μM substrate, 30° C., competitive inhibition model
Chain of HCV NS3/4A protease complexes (full-length hepatitis C NS3 protease enzyme with NS4A cofactor) (P27958 1027-1657, other chains not shown): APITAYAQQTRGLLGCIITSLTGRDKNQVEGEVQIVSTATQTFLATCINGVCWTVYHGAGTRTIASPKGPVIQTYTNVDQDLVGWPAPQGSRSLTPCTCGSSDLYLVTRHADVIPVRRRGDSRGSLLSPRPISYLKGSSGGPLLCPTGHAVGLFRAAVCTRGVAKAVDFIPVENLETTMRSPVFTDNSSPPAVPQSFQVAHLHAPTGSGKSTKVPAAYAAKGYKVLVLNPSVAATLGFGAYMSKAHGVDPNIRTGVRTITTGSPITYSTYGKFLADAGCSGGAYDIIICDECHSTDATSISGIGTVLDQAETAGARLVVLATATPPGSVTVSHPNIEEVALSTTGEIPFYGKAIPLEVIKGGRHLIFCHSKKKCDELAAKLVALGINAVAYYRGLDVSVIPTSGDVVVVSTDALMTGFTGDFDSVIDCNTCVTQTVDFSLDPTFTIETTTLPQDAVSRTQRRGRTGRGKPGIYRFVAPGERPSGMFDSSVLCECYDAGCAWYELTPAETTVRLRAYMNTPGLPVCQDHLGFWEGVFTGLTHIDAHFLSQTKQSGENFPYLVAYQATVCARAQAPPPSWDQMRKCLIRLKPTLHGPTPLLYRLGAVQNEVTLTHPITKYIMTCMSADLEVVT
Experimental: The aim of this in vitro assay is to measure the inhibition of HCV NS3/4A protease complexes by the compounds of the present invention. This assay provides an indication of how effective compounds of the present invention would be in inhibiting HCV NS3/4A proteolytic activity.
The inhibition of full-length hepatitis C NS3 protease enzyme was measured essentially as described in Poliakov, 2002 Prot Expression & Purification 25 363 371. Briefly, the hydrolysis of a depsipeptide substrate, Ac-DED(Edans)EEAbuψ[COO]ASK(Dabcyl)-NH2 (AnaSpec, San José, USA), was measured spectrofluorometrically in the presence of a peptide cofactor, KKGSVVIVGRIVLSGK (Åke Engström, Department of Medical Biochemistry and Microbiology, Uppsala University, Sweden). [Landro, 1997 #Biochem 36 9340-9348]. The enzyme (1 nM) was incubated in 50 mM HEPES, pH 7.5, 10 mM DTT, 40% glycerol, 0.1% n-octyl-D-glucoside, with 25 μM NS4A cofactor and inhibitor at 30° C. for 10 min, whereupon the reaction was initiated by addition of 0.5 μM substrate. Inhibitors were dissolved in DMSO, sonicated for 30 sec. and vortexed. The solutions were stored at −20° C. between measurements.
The final concentration of DMSO in the assay sample was adjusted to 3.3%. The rate of hydrolysis was corrected for inner filter effects according to published procedures.
[Liu, 1999 Analytical Biochemistry 267 331-335]. Ki values were estimated by non-linear regression analysis (GraFit, Erithacus Software, Staines, MX, UK), using a model for competitive inhibition and a fixed value for Km (0.15 μM). A minimum of two replicates was performed for all measurements.

## CCOC(=O)C12CC1C=CCCCCN(C)C(=O)C1CC(Oc3cc(C(C)(C)C)nc(OC)n3)CC1C(=O)N2 (stereo not drawn)
[1]; from C=CCCCCN(C)C(=O)C1CC(Oc2cc(C(C)(C)C)nc(OC)n2)CC1C(=O)NC1(C(=O)OCC)CC1C=C, 1.74 mM
  ring closure, isolated yield: 74%

## CCOC(=O)C12CC1C=CCCCCN(C)C(=O)C1CC(Oc3cc(OC)nc(-c4ccccc4)n3)CC1C(=O)N2 (stereo not drawn)
[1]; from C=CCCCCN(C)C(=O)C1CC(Oc2cc(OC)nc(-c3ccccc3)n2)CC1C(=O)NC1(C(=O)OCC)CC1C=C, 1.69 mM
  ring closure, isolated yield: 38%

## CCOC(=O)C12CC1C=CCCCCN(C)C(=O)C1CC(Oc3cc(OC)nc(OC)n3)CC1C(=O)N2 (stereo not drawn)
[1]; from C=CCCCCN(C)C(=O)C1CC(Oc2cc(OC)nc(OC)n2)CC1C(=O)NC1(C(=O)OCC)CC1C=C, 1.91 mM
  ring closure, isolated yield: 49%

## CN1CCCCC=CC2CC2(C(=O)NS(=O)(=O)C2CC2)NC(=O)C2CC(Oc3ccnc(-c4ccccc4)n3)CC2C1=O (stereo not drawn) [Example 10, Cyclopropanesulfonic acid [13-methyl-2,14-dioxo-17-(2-phenylpyrimidin-4-yloxy)-3,13-diaza-tricyclo[13.3.0.0*4,6*]octadec-7-ene-4-carbonyl]-amide]
[2]
  ring closure, yield after HPLC: 16%
[3]
  EC50: > 10 µM
[4]
  Ki: > 1 µM
